Reference: patent publication US10709677B2, “Therapeutic uses of benzylideneguanidine derivatives for the treatment of proteopathies” (InFlectis BioScience, priority 2014, dated 2020)

Experiments:
HeLa cells [1] = experiment: Cytoprotection from ER stress (tunicamycin, WST-8 cell viability); format: cell-based; conditions: 6 hour exposure of tunicamycin 5 μg/mL, inhibitors 0.5-10 μM, viability 48 h or 72 h after
From the text: Cytoprotection against ER stress can be measured by a suitable assay. For example, cytoprotection can be measured in HeLa cells in which ER stress is elicited by the addition of media containing tunicamycin, a mixture of homologous nucleoside antibiotics that inhibits the UDP-HexNAc: polyprenol-P HexNAc-1-P family of enzymes and is used to induce unfolded protein response. Cell viability can be detected in the presence and absence of inhibitor compounds after a set period of time, by measuring the reduction of WST-8 into formazan using a standard cell viability kit (such as Cell Viability Counting Kit-8 from Dojindo). The person skilled in the art may use other class of tetrazolium compounds such as MTT, MTS, XTT. Cytoprotection from ER stress is measured in terms of the percentage increase in viable cells (relative to control) after ER stress. Alternative cell viability assays may be used such as luminogenic ATP assay. Further details of a suitable assay are set forth in the accompanying Examples section.
HeLa Cells were cultured in Eagle's Minimum Essential Medium (EMEM) supplemented with Glutamine, Sodium Pyruvate, Non-Essential Amino Acids, Penicillin and Streptomycin containing 10% Fœtal Bovine Serum (FBS), at 37° C. in 5% CO2 atmosphere. Cells were plated in 96 well plates at a density of 17,000 cells/mL the day before the treatment. ER stress was elicited by addition of 5 μg/mL tunicamycin (Sigma-Aldrich) together with the phosphatases inhibitors (0.5-10 μM). Media were changed 6 h later with fresh media and the cytoprotection was maintained by the addition of the phosphatases inhibitors (0.5-10 μM). Cell viability was assessed by measuring the reduction of WST-8 into formazan using Cell Counting Kit-8 (Sigma) according to the supplier's recommendation, 48 h or 72 h after tunicamycin treatment.

HeLa cells [2] = experiment: Assessment of translation rates in unstressed cells; format: cell-based; conditions: compounds 50 μM for 2.5, 5 and 9 h
Procedure: Culture medium was replaced by methionine-free DMEM medium (Invitrogen) 30 min before compounds addition. One hour before each time point, 50 μM of Click-iT® AHA (L-azidohomoalanine) (Invitrogen) was added to the culture medium in order to label newly synthesized proteins. At the end of each time point, cells were washed with ice-cold PBS and harvested by Trypsine dissociation (Lonza), then lysed in a 50 mM Tris-HCl buffer containing 1% of SDS (Sigma) and protease and phosphatase inhibitors (Sigma). Protein samples were coupled to alkyne biotin (Invitrogen) using Click-iT® Protein Reaction Buffer Kit (Invitrogen). Samples were denatured at 70° C. for 10 min, resolved on ECL 4-20% precasted gels (GE Healthcare) and transferred to nitrocellulose membranes (GE Healthcare). Alkyne biotin coupled to Click-iT® AHA incorporated to newly synthesized proteins was detected using streptavidin-HRP (Gentex). Revelation was performed by incubation of ECL Prime (GE Healthcare) and read by chemoluminiscence using Fusion Solo 3S (Vilber Lourmat).

Min6 cells = experiment: Protection against accumulation of misfold prone Insulin Akita in Min6 cells; format: cell-based; conditions: viability 9 days after treatment
Procedure: Min6 cells were nucleofected with Insulin^Akita a mutant constructs and seeded in 96 well-plates at 300,000 cells/mL and 24 h later, cells were treated with molecules or left untreated. As a control, cells were nucleofected with non-relevant plasmid. 6 days later, a selective agent was added (G418).
Cell viability was assessed by measuring the reduction of WST-8 into formazan using Cell Counting Kit-8 (Sigma) according to the supplier's recommendation, 9 days after treatment.

Min6 insulinoma cell = experiment: Cytoprotection from ER stress (tunicamycin) in Min6 cell line; format: cell-based; conditions: 6 hour exposure to tunicamycin, different concentrations
Procedure: (§1) Cells were plated in 96 well plates at a density of 0.5·10^6 cells/mL for Min6 cell line, 0.4·10^6 cells/mL for INS1 cell line the day before the treatment.
(§2) ER stress was elicited by addition of 2.5 μg/mL tunicamycin (Sigma Aldrich) together with phosphatases inhibitors.
(§3) Media were changed 6 h later with fresh media and the cytoprotection was maintained by the addition of phosphatases inhibitors.
(§4) Cell viability was assessed by measuring the reduction of WST-8 into formazan using Cell Counting Kit-8 (Sigma) according to the supplier's recommendation, 72 h after tunicamycin treatment.

INS1 insulinoma cell = experiment: Cytoprotection from ER stress (tunicamycin) in INS1 cell line; format: cell-based; conditions: 6 hour exposure to tunicamycin, different concentrations
Procedure: as §1, §2, §3, §4

[3] = test system: mouse embryonic fibroblasts lipofected with poly I:C; experiment: In vitro inflammation/infection model: poly I:C induced mouse embryonic fibroblasts; format: cell-based; conditions: 25 μM, 6 h, IFN-beta ELISA
Procedure: After 6 h of culture, eIF2alpha-phosphorylation (eIF2α-P) and PPP1R15A (GADD34) expression was monitored by western blotting, while type-I Interferon (IFN)-beta production was quantified in culture supernatants by ELISA. Control (nt) and poly I:C/DMSO are respectively negative and positive controls.
MEFs were cultured in DMEM, 10% FCS (HyClone, Perbio), 100 units/ml penicillin, 100 μg/ml streptomycin, 2 mM glutamine, 1×MEM non-essential amino acids and 50 μM 2-mercaptoethanol. MEFS were treated for the indicated time with 10 μg/ml poly I:C (InvivoGen) in combination with lipofectamine 2000 (Invitrogen).
Cells were lysed in 1% Triton X-100, 50 mM Hepes, 10 mM NaCl, 2.5 mM MgCl2, 2 mM EDTA, 10% glycerol, supplemented with Complete Mini Protease Inhibitor Cocktail Tablets (Roche). Protein quantification was performed using the BCA Protein Assay (Pierce). […] Rabbit polyclonal antibodies recognizing GADD34 (C-19) were from Santa Cruz Biotechnology and anti-eIF2alpha[pS^52] were from Invitrogen.
IFN-beta quantification in culture supernatant was performed using the Mouse Interferon Beta ELISA kit (PBL Interferon Source) according to manufacturer instructions.

human alpha2A receptor = biological target: T1, human alpha2A receptor (Homo sapiens, UniProt P08913); experiment: Functional GPCR assay for adrenergic α2A receptor (CellKey detection method); format: cell-based; conditions: agonist activity, CHO cells, impedance; EC50>33.3 μM considered no significant alpha-2 adrenergic activity; read-out: Functional adrenergic alpha2 receptor assay EC50
T1 construct: CHO cells endogenously expressing human alpha2A receptor; endogenous in cells; host or cells: CHO cells
T1 sequence (P08913 1-465): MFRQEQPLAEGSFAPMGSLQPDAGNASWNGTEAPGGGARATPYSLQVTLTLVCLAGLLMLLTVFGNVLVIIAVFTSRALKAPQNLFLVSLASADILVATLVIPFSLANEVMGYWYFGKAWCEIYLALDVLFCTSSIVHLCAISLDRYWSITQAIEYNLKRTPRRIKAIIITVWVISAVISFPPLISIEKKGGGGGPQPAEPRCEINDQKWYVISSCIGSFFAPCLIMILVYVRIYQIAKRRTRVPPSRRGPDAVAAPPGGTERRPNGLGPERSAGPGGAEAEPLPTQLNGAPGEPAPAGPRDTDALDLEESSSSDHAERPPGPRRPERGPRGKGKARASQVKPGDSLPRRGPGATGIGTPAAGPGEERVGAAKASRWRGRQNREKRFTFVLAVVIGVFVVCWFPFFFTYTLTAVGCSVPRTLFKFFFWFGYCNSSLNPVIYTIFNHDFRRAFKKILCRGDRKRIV

HeLa cells [4] = conditions: tunicamycin, Tsaytler et al., Science 2011, cited from earlier work; for protection of cells from cytotoxic ER stress: HeLa cells

SMILES	Cytoprotection from ER stress compared to guanabenz (HeLa cells [1])	Translation inhibition in non-stressed cells (HeLa cells [2])	also measured
N=C(N)N/N=C/c1ccccc1Br [Compound 3, 2-(2-bromobenzylidene) hydrazinecarboximidamide]	++	no effect	
COc1ccccc1/C=N/NC(=N)N [Compound 4, 2-(2-methoxybenzylidene) hydrazinecarboximidamide]	+		
N=C(N)N/N=C/c1ccncc1Cl [Compound 6, 2-[(3-chloropyridin-4-yl)methylidene]hydrazinecarboximidamide]	+	no effect	cell death associated with accumulation of misfold prone Insulin Akita (FIG. 8) (Min6 cells): prevent cell death; Min6 insulinoma cell death induced by tunicamycin (FIG. 9) (Min6 insulinoma cell): prevent Min6 insulinoma cell death; INS1 insulinoma cell death induced by tunicamycin (FIG. 10) (INS1 insulinoma cell): prevent INS1 insulinoma cell death; type-I IFN production (FIG. 13) [3]: prevent type-I IFN production
CC(=O)O.N=C(N)N/N=C/c1ccncc1Cl [Compound 7, 2-[(3-chloropyridin-4-yl)methylidene]hydrazinecarboximidamide acetate]	++	no effect	EC50 (human alpha2A receptor): > 33300 nM
CC(=O)O.N=C(N)N/N=C/c1c(F)cccc1Cl [Compound 8, 2-(2-chloro-6-fluorobenzylidene)hydrazinecarboximidamide acetate]	++	no effect	type-I IFN production (FIG. 13) [3]: prevent type-I IFN production
Cc1ccc(/C=N/NC(=N)N)c(Cl)c1 [Compound 9, 2-(2-chloro-4-methylbenzylidene)hydrazinecarboximidamide]	−		
Cc1ccc(Cl)c(/C=N/NC(=N)N)c1 [Compound 10, 2-(2-chloro-5-methylbenzylidene)hydrazinecarboximidamide]	+		
Cc1cccc(/C=N/NC(=N)N)c1Cl [Compound 11, 2-(2-chloro-3-methylbenzylidene)hydrazinecarboximidamide]	+		
Clc1cccc(Cl)c1N=C1NCCN1 [clonidine]			protection of cells from cytotoxic ER stress (HeLa cells [4]): Neither the α2-adrenergic receptor agonist clonidine, nor the α2-adrenergic receptor antagonist efaroxan protected cells
CCC1(C2=NCCN2)Cc2ccccc2O1 (stereo not shown) [efaroxan]			protection of cells from cytotoxic ER stress (HeLa cells [4]): Neither the α2-adrenergic receptor agonist clonidine, nor the α2-adrenergic receptor antagonist efaroxan protected cells
NC(N)=N/N=C/c1c(Cl)cccc1Cl [guanabenz, 2-(2,6-dichlorobenzylidene)hydrazinecarboximidamide]			protection of cells from cytotoxic ER stress (HeLa cells [4]): doubled the number of cells surviving ER stress; EC50 (HeLa cells [4]; read-out: median effective concentration, survival of HeLa cells exposed to ER stress): ~400 nM
